Measured values taken from US9850521B2 (Agilent Technologies, Inc., priority 2014, dated 2017).
Entries after “also recorded” stand apart in the source; their conditions may differ.

Molecular target: Cas9 (Streptococcus pyogenes serotype M1, UniProt Q99ZW2)
Assay: Cas9 plasmid DNA cleavage assay, testing of surfactants
Format: biochemical
Settings: for effect on Cas9 enzyme activity: FIG. 4, versus absence of surfactants/detergents, two RNA guides; for % cleavage: linearized pKan-C1 substrate DNA, 30 min at 30° C.
Description: The reactions were stopped by heat inactivation of the enzyme at 65° C. for 15 minutes. Cleavage reactions were analyzed by Agilent Tape Station using Genomic Screen Tapes.
Reaction mixtures were incubated at 30° C. for 30 minutes followed by heat inactivation of the enzyme. Table 1 lists the surfactants/detergents used at various concentrations and the resulting DNA template cleavage percentage.

Sequence of Cas9 (Q99ZW2 whole entry): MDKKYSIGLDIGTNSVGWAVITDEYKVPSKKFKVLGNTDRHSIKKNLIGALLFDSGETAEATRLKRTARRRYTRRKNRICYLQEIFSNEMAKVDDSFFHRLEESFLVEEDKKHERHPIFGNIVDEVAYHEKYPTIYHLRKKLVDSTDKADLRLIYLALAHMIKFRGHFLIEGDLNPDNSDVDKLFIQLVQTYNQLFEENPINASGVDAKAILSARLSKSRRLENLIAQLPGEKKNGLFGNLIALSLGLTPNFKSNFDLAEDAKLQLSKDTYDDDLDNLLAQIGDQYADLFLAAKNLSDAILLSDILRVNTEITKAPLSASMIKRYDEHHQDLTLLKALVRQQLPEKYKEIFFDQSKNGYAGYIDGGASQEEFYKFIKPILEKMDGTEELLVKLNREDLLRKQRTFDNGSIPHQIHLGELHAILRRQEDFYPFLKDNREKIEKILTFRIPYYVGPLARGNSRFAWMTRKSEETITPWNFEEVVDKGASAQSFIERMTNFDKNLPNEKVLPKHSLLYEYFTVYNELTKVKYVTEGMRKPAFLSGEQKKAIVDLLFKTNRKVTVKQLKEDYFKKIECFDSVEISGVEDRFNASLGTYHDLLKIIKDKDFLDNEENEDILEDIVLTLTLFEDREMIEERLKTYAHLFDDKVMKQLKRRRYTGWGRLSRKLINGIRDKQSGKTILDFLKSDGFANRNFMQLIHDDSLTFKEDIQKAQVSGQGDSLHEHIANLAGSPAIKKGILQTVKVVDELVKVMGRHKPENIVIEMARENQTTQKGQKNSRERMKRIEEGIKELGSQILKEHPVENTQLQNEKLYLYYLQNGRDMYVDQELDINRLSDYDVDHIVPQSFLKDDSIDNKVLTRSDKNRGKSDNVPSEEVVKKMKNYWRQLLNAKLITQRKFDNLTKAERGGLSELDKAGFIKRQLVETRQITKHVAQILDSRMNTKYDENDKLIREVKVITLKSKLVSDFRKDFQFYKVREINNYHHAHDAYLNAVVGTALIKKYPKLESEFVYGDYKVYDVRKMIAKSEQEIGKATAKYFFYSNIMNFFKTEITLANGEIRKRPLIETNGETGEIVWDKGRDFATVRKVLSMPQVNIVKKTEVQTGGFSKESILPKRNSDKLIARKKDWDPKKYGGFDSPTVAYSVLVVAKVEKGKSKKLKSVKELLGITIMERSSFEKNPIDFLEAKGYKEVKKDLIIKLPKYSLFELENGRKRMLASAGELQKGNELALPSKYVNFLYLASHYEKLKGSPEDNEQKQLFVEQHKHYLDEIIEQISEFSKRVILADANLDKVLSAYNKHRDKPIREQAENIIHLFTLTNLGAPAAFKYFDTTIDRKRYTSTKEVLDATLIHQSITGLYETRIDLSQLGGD

## octylphenoxypolyethoxyethanol [Triton X 100]
  effect on Cas9 enzyme activity: improved enzyme activity; also recorded: significantly increased Cas9 activity
Guide 601, detergent 0.025%
  % cleavage: 0.60%
Guide 601, detergent 0.05%
  % cleavage: 0.60%
Guide 601, detergent 0.1%
  % cleavage: 0.59%
Guide 601, detergent 0.2%
  % cleavage: 0.65%
Kan C1 Guide, detergent 0.025%
  % cleavage: 0.54%
Kan C1 Guide, detergent 0.05%
  % cleavage: 0.51%
Kan C1 Guide, detergent 0.1%
  % cleavage: 0.52%
Kan C1 Guide, detergent 0.2%
  % cleavage: 0.61%

## C[C@H](CCC(=O)NCCC[N+](C)(C)CC(O)CS(=O)(=O)[O-])[C@H]1CC[C@H]2[C@@H]3[C@H](O)C[C@@H]4C[C@H](O)CC[C@]4(C)[C@H]3C[C@H](O)[C@]12C (stereo partly drawn) [Chapso, reference compound]
  effect on Cas9 enzyme activity: had no effect on Cas9 activity
Guide 601, detergent 0.025%
  % cleavage: 0.52%
Guide 601, detergent 0.05%
  % cleavage: 0.50%
Guide 601, detergent 0.1%
  % cleavage: 0.51%
Guide 601, detergent 0.2%
  % cleavage: 0.54%
Kan C1 Guide, detergent 0.025%
  % cleavage: 0.43%
Kan C1 Guide, detergent 0.05%
  % cleavage: 0.43%
Kan C1 Guide, detergent 0.1%
  % cleavage: 0.45%
Kan C1 Guide, detergent 0.2%
  % cleavage: 0.44%
